In patent US6545002B1 (University of Virginia Patent Foundation, priority 1999, dated 2003):
Read-outs that look alike come from different tables or passages of the source.

What was measured:
human A3 receptors (hA3) [1] = molecular target: T1, human A3 receptors (hA3) (Homo sapiens, UniProt P0DMS8); experiment: Displacement of [125I]ABA binding at human A3 receptors expressed in HEK-293 cells; conditions: Table 1; [125I]ABA, HEK-293; read-out: hA3 Ki or IC50
T1 construct: expressed in transfected cells; host or cells: HEK-293
T1 sequence (P0DMS8 1-318): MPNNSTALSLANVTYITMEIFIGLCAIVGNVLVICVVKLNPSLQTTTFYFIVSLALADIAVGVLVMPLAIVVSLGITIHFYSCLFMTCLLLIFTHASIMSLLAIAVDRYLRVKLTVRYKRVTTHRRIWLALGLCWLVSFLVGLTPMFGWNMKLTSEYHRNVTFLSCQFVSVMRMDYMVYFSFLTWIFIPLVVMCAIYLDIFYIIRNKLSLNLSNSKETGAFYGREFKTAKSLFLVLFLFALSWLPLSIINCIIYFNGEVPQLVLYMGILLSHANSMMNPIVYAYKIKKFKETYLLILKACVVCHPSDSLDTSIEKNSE

A3 receptors (r) = molecular target: T2, A3 receptors (r) (Rattus norvegicus, UniProt P28647); experiment: Binding at rat A3 receptors, values marked (r) in Table 1
T2 sequence (P28647 1-320): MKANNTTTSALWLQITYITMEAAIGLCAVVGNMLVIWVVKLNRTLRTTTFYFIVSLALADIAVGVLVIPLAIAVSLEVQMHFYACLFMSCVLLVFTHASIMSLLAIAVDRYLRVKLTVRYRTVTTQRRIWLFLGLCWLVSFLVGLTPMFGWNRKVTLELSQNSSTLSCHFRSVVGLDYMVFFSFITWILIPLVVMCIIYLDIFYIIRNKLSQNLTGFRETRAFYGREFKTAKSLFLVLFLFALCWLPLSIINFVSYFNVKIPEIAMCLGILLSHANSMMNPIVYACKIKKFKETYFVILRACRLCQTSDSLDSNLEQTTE

[2] = molecular target: T3, recombinant human A1 receptors (hA1) (Homo sapiens, UniProt P30542); experiment: Radioligand binding ([3H]CPX) at recombinant human A1 receptors in HEK-293 cells
T3 sequence (P30542 1-326): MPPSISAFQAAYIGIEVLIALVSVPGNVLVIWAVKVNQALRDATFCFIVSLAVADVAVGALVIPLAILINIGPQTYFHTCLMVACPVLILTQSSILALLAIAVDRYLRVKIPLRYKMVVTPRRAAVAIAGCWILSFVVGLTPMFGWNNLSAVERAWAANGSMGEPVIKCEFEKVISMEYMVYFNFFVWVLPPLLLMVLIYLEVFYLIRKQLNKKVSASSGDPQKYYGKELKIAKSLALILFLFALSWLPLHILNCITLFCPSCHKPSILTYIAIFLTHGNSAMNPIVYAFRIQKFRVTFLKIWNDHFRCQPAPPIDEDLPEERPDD
Protocol: (§1) All non-radioactive compounds were initially dissolved in DMSO, and diluted with buffer to the final concentration, where the amount of DMSO never exceeded 2%. Incubations were terminated by rapid filtration over Whatman GF/B filters, using a Brandell cell harvester (Brandell, Gaithersburg, Md.). The tubes were rinsed three times with 3 mL buffer each.
(§2) At least six different concentrations of competitor, spanning 3 orders of magnitude adjusted appropriately for the IC50 of each compound, were used. IC50 values, calculated with the nonlinear regression method implemented in (Graph-Pad Prism, San Diego, Calif.), were converted to apparent Ki values as described.
(§3) The potency of the xanthine derivatives at human A2B receptors was evaluated using two binding assays. […] In order to determine selectivity, the xanthines were evaluated using standard binding assays at A1, A2A, and A3 receptors.

rat A1 receptors (rA1) = molecular target: T4, rat A1 receptors (rA1) (Rattus norvegicus, UniProt P25099); experiment: Displacement of [3H]R-PIA binding in rat brain (cerebral cortical) membranes
T4 construct: to A1 receptors from rat cerebral cortical membranes; from tissue; host or cells: rat cerebral cortical (brain) membranes
T4 sequence (P25099 1-326): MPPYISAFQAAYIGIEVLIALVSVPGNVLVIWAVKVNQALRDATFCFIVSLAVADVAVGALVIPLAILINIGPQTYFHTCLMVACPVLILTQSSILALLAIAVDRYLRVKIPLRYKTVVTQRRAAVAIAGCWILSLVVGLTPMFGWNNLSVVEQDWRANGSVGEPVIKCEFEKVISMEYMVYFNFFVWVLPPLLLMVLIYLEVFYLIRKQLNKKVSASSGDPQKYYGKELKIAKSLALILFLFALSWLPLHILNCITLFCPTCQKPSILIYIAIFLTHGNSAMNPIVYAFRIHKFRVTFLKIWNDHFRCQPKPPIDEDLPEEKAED

rat A2A receptors (rA2A) = molecular target: T5, rat A2A receptors (rA2A) (Rattus norvegicus, UniProt P30543); experiment: Displacement of [3H]CGS 21680 binding in rat striatal membranes
T5 construct: to A2A receptors from rat striatal membranes was performed as described; from tissue; host or cells: rat striatal membranes
T5 sequence (P30543 whole entry): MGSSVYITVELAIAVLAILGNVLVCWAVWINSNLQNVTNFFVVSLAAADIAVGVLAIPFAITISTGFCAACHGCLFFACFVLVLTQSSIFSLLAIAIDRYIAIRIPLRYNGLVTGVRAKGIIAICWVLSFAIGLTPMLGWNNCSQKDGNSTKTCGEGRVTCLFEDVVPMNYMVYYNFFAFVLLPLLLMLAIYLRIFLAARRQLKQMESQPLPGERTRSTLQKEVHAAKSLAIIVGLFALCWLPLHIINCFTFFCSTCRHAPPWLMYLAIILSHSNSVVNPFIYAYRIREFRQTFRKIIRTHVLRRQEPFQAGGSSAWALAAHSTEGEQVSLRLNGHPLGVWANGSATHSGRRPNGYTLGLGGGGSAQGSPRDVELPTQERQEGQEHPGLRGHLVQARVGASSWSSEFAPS

[3] = molecular target: T6, human A2B receptors (hA2B) (Homo sapiens, UniProt P29275); experiment: Radioligand binding ([125I]ABOPX / [3H]ZM241385) at human A2B receptors expressed in HEK-293 cells; conditions: for hA1/hA2B / hA2A/hA2B / hA3/hA2B / rA1/hA2B: Ki ratio
T6 construct: expressed in transfected cells; host or cells: HEK-293 (HEK-A2B, G418-selected)
T6 sequence (P29275 1-332): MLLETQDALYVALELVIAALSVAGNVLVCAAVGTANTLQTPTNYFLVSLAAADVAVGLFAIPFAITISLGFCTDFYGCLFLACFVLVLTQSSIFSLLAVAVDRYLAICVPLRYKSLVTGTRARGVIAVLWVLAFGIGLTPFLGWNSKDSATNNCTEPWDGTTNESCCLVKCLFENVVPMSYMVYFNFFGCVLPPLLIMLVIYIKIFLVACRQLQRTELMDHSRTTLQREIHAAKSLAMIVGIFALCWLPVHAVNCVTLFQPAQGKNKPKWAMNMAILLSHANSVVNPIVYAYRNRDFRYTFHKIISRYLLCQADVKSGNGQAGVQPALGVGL

[4] = molecular target: recombinant human A2A receptors (hA2A) (Homo sapiens, UniProt P29274); experiment: Radioligand binding (125I-ZM241385) at recombinant human A2A receptors in HEK-293 cells
Chain of recombinant human A2A receptors (hA2A) (P29274 whole entry): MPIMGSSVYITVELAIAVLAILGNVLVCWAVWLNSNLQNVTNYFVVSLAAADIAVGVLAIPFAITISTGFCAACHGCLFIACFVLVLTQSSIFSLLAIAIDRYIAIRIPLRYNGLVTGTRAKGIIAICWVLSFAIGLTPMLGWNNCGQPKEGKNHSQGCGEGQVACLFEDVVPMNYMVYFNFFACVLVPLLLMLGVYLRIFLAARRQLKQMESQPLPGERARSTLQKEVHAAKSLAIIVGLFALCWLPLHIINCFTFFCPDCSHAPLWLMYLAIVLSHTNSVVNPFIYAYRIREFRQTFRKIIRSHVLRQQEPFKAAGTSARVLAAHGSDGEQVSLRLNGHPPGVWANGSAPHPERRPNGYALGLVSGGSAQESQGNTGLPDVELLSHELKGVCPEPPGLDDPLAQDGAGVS
Protocol: as §1, §2, §3

human A3 receptors (hA3) [5] = molecular target: T1, human A3 receptors (hA3); experiment: Displacement of [125I]AB-MECA binding at human A3 receptors expressed in HEK-293 cells (Table 4)
[6] = read-out: hA1 Ki, values marked (h), Table 1, recombinant human A1, HEK 293
[7] = Table 1, [3H]R-PIA, rat brain membranes, read-out: rA1 Ki or IC50
[8] = Table 1, [3H]CGS 21680, rat striatal membranes, read-out: rA2A Ki or IC50
[9] = Table 1, [125I]ABOPX, HEK-293, read-out: hA2B Ki or IC50
[10] = read-out: hA2A Ki, values marked (h), Table 1, recombinant human A2A, HEK 293
[11] = Table 4, unmarked value, first of two binding assays, read-out: hA2B Ki
[12] = read-out: hA1 Ki, values marked (h)^a, Table 4, vs [3H]CPX, HEK-293
[13] = read-out: hA2A Ki, values marked (h)^a, Table 4, vs [125I]ZM241385, HEK-293
[14] = read-out: Ki value at human A2B receptors

Ki (rat A1 receptors (rA1); Table 4, read-out: rA1 Ki) [nM]	Ki (rat A2A receptors (rA2A); Table 4, read-out: rA2A Ki) [nM]	rA1/hA2B ([3]; Table 4)	Ki [3, 11] [nM]	Ki (human A3 receptors (hA3) [5]) [nM]	Ki [3, 14] [nM]	Compound	further results
–	–	–	–	–	–	CCCn1c(=O)c2[nH]c(-c3ccc(OCC(=O)O)cc3)nc2n(CCC)c1=O [Compound 4a, 8-[4-[[[carboxy]methyl]oxy]phenyl]-1,3-dipropylxanthine]	Ki (human A3 receptors (hA3) [1]): 3910 nM; Ki (A3 receptors (r)): 75.7 µM; Ki [2, 6]: 175 ± 57 nM
–	–	–	–	–	–	C=CCn1c(=O)c2[nH]c(-c3ccc(OCC(=O)O)cc3)nc2n(CC=C)c1=O [Compound 5]	Ki (rat A1 receptors (rA1); [7]): 756 ± 147 nM; Ki (rat A2A receptors (rA2A); [8]): 4290 nM; hA1/hA2B ([3]; Table 1): 12; hA2A/hA2B ([3]; Table 1): 17; hA3/hA2B ([3]; Table 1): 5.8; Ki [3, 9]: 141 ± 29 nM; Ki (human A3 receptors (hA3) [1]): 816 ± 91 nM; Ki (A3 receptors (r)): 173 µM; Ki [2, 6]: 1660 nM; Ki [4, 10]: 2370 nM
–	–	–	–	–	–	CCCCn1c(=O)c2[nH]c(-c3ccc(OCC(=O)O)cc3)nc2n(CCCC)c1=O [Compound 6]	Ki (rat A1 receptors (rA1); [7]): 43.1 ± 9.9 nM; Ki (rat A2A receptors (rA2A); [8]): 874 ± 107 nM; hA1/hA2B ([3]; Table 1): 3.1; hA2A/hA2B ([3]; Table 1): 53; hA3/hA2B ([3]; Table 1): 1.9; Ki [3, 9]: 48 ± 16.9 nM; Ki (human A3 receptors (hA3) [1]): 90.3 ± 14.2 nM; Ki (A3 receptors (r)): 27.5 µM; Ki [2, 6]: 149 ± 83 nM; Ki [4, 10]: 2540 nM
73.3 ± 22	174 ± 32	1.6	116 ± 10	173 ± 27	–	CCCn1c(=O)c2[nH]c(-c3ccc(OCC(=O)NNC(=O)CCC(=O)O)cc3)nc2n(CCC)c1=O [Compound 42, 8-[4-[(Carboxymethyl)oxy]phenyl]-1,3-di-(n-propyl)xanthine N-[(3-Carboxy)-n-propionyl]hydrazide]	Ki ([3]; Table 4, footnote a: [125I]-ABOPX, read-out: hA2B Ki (value marked ^a) (converted)): 97.8 nM; Ki [2, 12]: 219 nM; Ki [4, 13]: 795 nM
55.9 ± 25.1	805 ± 44	3.0	18.6 ± 6.1	766 ± 176	–	CCCn1c(=O)c2[nH]c(-c3ccc(OCC(=O)NN4C(=O)CCC4=O)cc3)nc2n(CCC)c1=O [Compound 43, 8-[4-[(Carboxymethyl)oxy]phenyl]-1,3-di-(n-propyl)xanthine N,N-Succinylhydrazide]	Ki [2, 12]: 75.2 nM; Ki [4, 13]: 27.2 nM
36.4 ± 6.2	689 ± 477	3.6	–	370 ± 190	10	CCCn1c(=O)c2[nH]c(-c3ccc(OCC(=O)NN4C(=O)[C@H]5CC=CC[C@H]5C4=O)cc3)nc2n(CCC)c1=O [Compound 52, 8-[4-[(Carboxymethyl)oxy]phenyl]-1,3-di-(n-propyl)xanthine N,N-(cis-1,2,3,6-Tetrahydrophthaloyl)hydrazide]	Ki [2]: 129 nM; Ki [4]: 301 nM
41.3 ± 6.4	1160 ± 337	1.9	21.5 ± 1.5	309 ± 88	–	CCCn1c(=O)c2[nH]c(-c3ccc(OCC(=O)NN4C(=O)C5=C(CCC5)C4=O)cc3)nc2n(CCC)c1=O [Compound 54, 8-[4-[(Carboxymethyl)oxy]phenyl]-1,3-di-(n-propyl)xanthine N,N-(1-Cyclopentene-1,2-dicarbonyl)hydrazide]	–
47.2 ± 6.8	422 ± 136	2.7	17.3 ± 6.3	438 ± 109	17	CCCn1c(=O)c2[nH]c(-c3ccc(OCC(=O)NNC(=O)C4=C(C(=O)O)CCCC4)cc3)nc2n(CCC)c1=O [Compound 55, 8-[4-[(Carboxymethyl)oxy]phenyl]-1,3-di-(n-propyl)xanthine N-[2-((1-Carboxy)-1-cyclohexene)-carbonyl]hydrazide]	Ki [2, 12]: 145 nM; Ki [4, 13]: 95.6 nM
61.9 ± 11.3	415 ± 157	1.7	35.8 ± 0.7	245 ± 45	–	CCCn1c(=O)c2[nH]c(-c3ccc(OCC(=O)NN4C(=O)C5=C(CCCC5)C4=O)cc3)nc2n(CCC)c1=O [Compound 56, 8-[4-[(Carboxymethyl)oxy]phenyl]-1,3-di-(n-propyl)xanthine N,N-(3,4,5,6-Tetrahydrophthaloyl)hydrazide]	–
14 ± 2.3	135 ± 39	0.6	22 ± 5.5	200 ± 45	–	CCCn1c(=O)c2[nH]c(-c3ccc(OCC(=O)NN4C(=O)CCCC4=O)cc3)nc2n(CCC)c1=O [Compound 58, 8-[4-[(Carboxymethyl)oxy]phenyl]-1,3-di-(n-propyl)xanthine N,N-Glutarylhydrazide]	–
41.2 ± 16.6	164 ± 61	1.6	25.7 ± 5.5	290 ± 88	–	CCCn1c(=O)c2[nH]c(-c3ccc(OCC(=O)NN4C(=O)CC(O)CC4=O)cc3)nc2n(CCC)c1=O [Compound 59, 8-[4-[(Carboxymethyl)oxy]phenyl]-1,3-di-(n-propyl)xanthine N,N-(3-Hydroxy)glutarylhydrazide]	–
70.8 ± 30.9	872 ± 412	2.9	24.8 ± 7.3	430 ± 44	25	CCCn1c(=O)c2[nH]c(-c3ccc(OCC(=O)NNC(=O)[C@H](CCC(=O)O)NC(=O)C(F)(F)F)cc3)nc2n(CCC)c1=O [Compound 60, 8-[4-[(Carboxymethyl)oxy]phenyl]-1,3-di-(n-propyl)xanthine N-[(4-Carboxy-(2S)-Trifluoroacetamido)-n-butanoyl]hydrazide]	–
53.5 ± 6.5	440 ± 106	4.1	–	726 ± 245	13	CCCn1c(=O)c2[nH]c(-c3ccc(OCC(=O)NN4C(=O)CC[C@H](NC(=O)C(F)(F)F)C4=O)cc3)nc2n(CCC)c1=O [Compound 61]	Ki [2]: 149 nM; Ki [4]: 178 nM
36 ± 6.6	609 ± 95	3.3	10.8 ± 5	323 ± 47	11	CCCn1c(=O)c2[nH]c(-c3ccc(OCC(=O)NNC(=O)CNC(=O)CNC(=O)OCc4ccccc4)cc3)nc2n(CCC)c1=O [Compound 64, 8-[4-[(Carboxymethyl)oxy]phenyl]-1,3-di-(n-propyl)xanthine N-(N-Benzyloxycarbonyl-glycylglycinyl)hydrazide]	Ki [2, 12]: 200 ± 22 nM; Ki [4, 13]: 830 ± 84 nM
